Data reported in US7193044B1, “Compounds and methods for regulating apoptosis, and methods of making and screening for compounds that regulate apoptosis” (Immunogen, Inc., priority 2000, dated 2007).
“Also recorded” adds a separate entry of the source. Non-standard residues stand in square brackets, D forms with d. No end group written: not given here. pS = N[C@@H](COP(=O)(O)O)C(=O)O

How the values were obtained:
Akt = Akt activation in HeLa cells (anti-phospho-S473 Akt western blot); assay type: cell-based, human; settings: serum-starved HeLa cells, pretreatment then EGF
Text: FIG. 10(B) is a series of western blots. Serum-starved HeLa cells expressing HA-BAD S155A, were pretreated with a buffer control (lanes 1 and 2), AG1478 (“AG”) (lane 3), Wortmannin (“Wm”) (lane 4), or H89 (lane 5). The cell cultures were then stimulated with a buffer control (lane 1) or EGF (lanes 2–5). Whole cell lysates were made from the cultures and the proteins were separated by SDS-PAGE. Blots were probed with either an anti-activated EGF receptor antibody (“activated EGFR”) (panel A), an anti-phospho-S473 Akt antibody (“pS473 Akt”) (panel B), or an anti-phospho-S155 BAD antibody (“pS155 BAD”) (panel D). Reblots were probed with either an anti-Akt antibody (“Akt”) (panel C) or an anti-HA BAD antibody (“HA-BAD”) (panel E).
(§1) To further test whether phosphorylation of Ser155 is dependent on the PI 3-kinase/Akt pathway, HeLa cells were transfected with the mutant HA-BAD S155A and pretreated with Wortmannin, an inhibitor of PI 3-kinase. These cells were then stimulated with epidermal growth factor (EGF), lysed and analyzed by western blot analysis.

[1] = system: BAD Ser155 phosphorylation in HeLa cells; experiment: BAD phosphorylation in HeLa cells (western blot band-shift / anti-phospho-Ser155 antibody); assay type: cell-based, human; settings: for induction of band-shift (Ser155 phosphorylation) of HA-BAD S112A/S136A: transfected HeLa cells treated with the agent; for Ser155 phosphorylation following growth factor stimulation: results not shown
Protocol: A mammalian expression vector encoding mutant HA-BAD S155A, derived from the shorter murine BAD of SEQ ID NO:3, was constructed. HA-BAD S155A has an amino acid sequence wherein the serine at a position corresponding to Ser155 is substituted with alanine. A western blot was performed on WCL prepared from cells expressing the shorter murine BAD (SEQ ID NO:3), HA-BAD S112A, HA-BAD S136A, or HA-BAD S155A, and probed with anti-HA antibody.
A western blot analysis, probed with anti-HA antibody, was performed on lysates produced from the Forskolin treated and untreated (control) cells to determine whether Forskolin could induce the phosphorylation BAD or mutant BAD.
HeLa cells transiently expressing HA-BAD, HA-BAD S155A, HA-BAD S112A/S136A, or HA-BAD S112A/S136A/S155A were treated with Forskolin or a buffer control.
The HA-BAD S112A/S136A double mutant was transiently expressed in HeLa cells, and transfected cell cultures were treated with each of the GPCR ligands, individually and as a group. A western blot analysis, probed with anti-HA antibody, was performed on lysates produced from the treated and untreated (negative control) cells. […] Forskolin (FK) and no treatment (−) were positive and negative controls, respectively (FIG. 6(a), […], respectively).
Non-transfected HeLa cells were treated with Forskolin or L-epinephrine, followed by western blot analysis of cell lysates using anti-BAD antibodies.
Transformants were treated with L-epinephrine, then lysed and subjected to anti-HA western blot analysis.
as §1
For immunoprecipitation of all HA-BAD species, 1 μg of the anti-HA antibody was added to the cell lysates, and incubated at 4° C. for one hour. Protein G agarose (Pierce) was then added (50 μl/fraction of 50% slurry) and followed by a one hour incubation at 4° C. Beads were washed with RIPA buffer, boiled in loading buffer (2% SDS, 10% glycerol, 5% β-ME, 60 mM Tris, pH 6.8, 0.002% Bromophenol Blue) and loaded onto polyacrylamide gels. After electrophoresis, proteins were transferred to nitrocellulose membranes, and blots blocked in western wash buffer (40 mM Tris, pH 8.0, 150 mM NaCl, 0.2% NP-40) with 5% BSA for one hour at room temperature. Blots were incubated with primary antibody diluted in western wash buffer with 3% BSA at room temperature for 1–2 hours, washed with western wash buffer and incubated with secondary HRP-coupled antibody diluted in western wash buffer with 1.5% BSA, and washed extensively. Polypeptides were detected with the ECL chemiluminescence according to the manufacturers instructions (Amersham).

BAD phosphorylation = BAD phosphorylation (test system not specified)
Text: Similarly, inhibitors and activators of protein kinases are known and can be used as therapeutic agents (see, e.g., Levitski, 1994). […] It is preferred that the inhibitors and activators have selective actions on the kinase(s) acting upon the BAD, or fragment of BAD, of the present invention. […] Alternatively, in vivo testing could be done using a number of experimental approaches, and one example, as reported herein, utilizes the endogenous phosphorylation of BAD upon re-addition of IL-3 after withdrawal for two hours. Such standard testing systems could be used to test candidate compounds as inhibitors or activators of BAD phosphorylation.

GST-Bcl-XL = GST-Bcl-XL (Homo sapiens, UniProt Q07817); experiment: In vitro competition binding assay (BH3 peptides blocking GST-Bcl-XL binding to immobilized BAK BH3 peptide, ELISA)
Chain of GST-Bcl-XL (Q07817 whole entry, the tested form may be a part): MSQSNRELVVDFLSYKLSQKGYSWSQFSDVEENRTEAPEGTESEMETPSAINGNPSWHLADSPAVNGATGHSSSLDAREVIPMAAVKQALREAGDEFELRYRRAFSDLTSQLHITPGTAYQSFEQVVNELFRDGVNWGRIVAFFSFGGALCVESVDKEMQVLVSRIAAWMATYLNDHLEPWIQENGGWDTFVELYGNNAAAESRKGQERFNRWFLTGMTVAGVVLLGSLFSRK
Protocol: FIG. 3(B) is a graphical representation of the results of an in vitro competition binding assay. Recombinant GST-Bcl-XL was incubated with a BAD BH3 peptide (residues 143–168 of SEQ ID NO: 2) phosphorylated on Ser155 (“BAD BH3-P”), a BAD BH3 peptide (residues 143–168 of SEQ ID NO: 2) unphosphorylated on Ser155 (“BAD BH3”), or a BAK BH3 peptide (residues 71–89; residues 1–20 of SEQ ID NO: 5) as a positive control, at the indicated concentrations. The reaction mixtures were then added to microtiter plates pre-coated with BAK BH3 peptide. The amount of bound GST-Bcl-XL was determined by ELISA using an anti-GST primary antibody and a horse-radish peroxidase-conjugated anti-mouse IgG secondary antibody with ABTS as substrate.
Whether the addition of a phosphate group on BAD Ser155 interferes with this interaction was tested by measuring the affinity of BAD BH3 peptides for Bcl-XL in an in vitro competition binding assay. Synthetic BAD BH3 peptide encompassing BAD residues 143 to 168, was incubated with recombinant GST-Bcl-XL at the indicated concentrations (FIG. 3(b)). The affinity of the BAD BH3 peptide for GST-Bcl-XL was measured as the ability of the peptide to block subsequent binding of GST-Bcl-XL to a BAK BH3 peptide when the reacted mixture was added to a microtiter plate pre-immobilized with a BAK BH3 peptide, as detected by ELISA (triplicate samples, +/−standard deviation). […]

[2] = system: BAD phosphorylation in Rat-1 cells; experiment: BAD phosphorylation in Rat-1 cells (western blot band-shift / anti-phospho-Ser155 antibody); assay type: cell-based; settings: for induction of band-shift of HA-BAD S112A/S136A: transfected Rat-1 fibroblasts
Text: In the absence of a phospho-Ser155 antibody, it was difficult to conclude that this band-shift was solely the result of the phosphorylation of Ser155. However, it appeared that this response was at least primarily due to the phosphorylation at this site. This was based on the combined evidence, both in vitro and in cells, as described above (FIGS. 1, 2 and 4–7) and the fact that Ser155 is the only site of BAD homologous to the substrate consensus sequence of PKA.
Whether the BAD Ser155 kinase, PKA, is also activated by growth factors, and if so, whether such activation is PI 3-kinase dependent, was investigated. […] Cell lysates were analyzed via western blot analysis, probed using anti-HA antibody. […] However, the magnitude of phosphorylation was weaker and may be more transient, than the effect of Forskolin (FIG. 9(a)). Of note, Ser155 phosphorylation following IGF-1, EGF, or PDGF stimulation was not detected in HeLa cells (results not shown).
It has been documented that Akt kinase activity, the serine kinase shown to phosphorylate BAD Ser136, is induced by growth factors and is dependent on PI 3-kinase activation (Datta et al., 1997; del Peso et al., 1997). In related experiments, Rat-1 cells were pretreated with either the PKA inhibitor H89, or the PI 3-kinase inhibitor Wortmannin (available, e.g., from Sigma, St. Louis, Mo.), followed by stimulation with Forskolin (also available from Sigma) or PDGF. […] This indicated the shift was PKA dependent (FIG. 9(b), lower panel, compare lanes 5 and 6). […] It therefore presumably had no effect on PDGF-induced activation of PI 3-kinase.
To examine whether endogenous BAD is phosphorylated on Ser155 in response to growth factors, serum-starved Rat-1 fibroblasts were stimulated with PDGF. Whole cell lysates were prepared and endogenous BAD was immunoprecipitated. Proteins were separated by SDS-PAGE, and Ser155 phosphorylation was analyzed by Western blot using the phospho-S155 antibody and an anti-BAD antibody.

Question: For `COc1cc2ncnc(Nc3cccc(Cl)c3)c2cc1OC` [AG1478, reference compound], which “effect on EGF-induced activation/phosphorylation of endogenous Akt” value (Akt) is on record?
Answer: Its value is “blocked the phosphorylation of both”.

Question: What about the “inhibition of EGF-induced phosphorylation of BAD on Ser155” value ([1]; serum-starved HeLa cells transfected with HA-BAD S155A (so in the source), pretreatment then EGF, anti-phospho-S155 blot) of the same compound?
Answer: Its value is “blocked the phosphorylation of both”.

Question: Which “induction of band-shift of endogenous BAD” value ([1]; non-transfected HeLa cells) does the source give for `CNC[C@H](O)c1ccc(O)c(O)c1` [L-epinephrine, reference compound] here?
Answer: Its value is “resulted in a new band-shift”.

Question: What about the “induction of band-shift (Ser155 phosphorylation) of HA-BAD S112A/S136A” value [1] of the same compound?
Answer: Its value is “induced a significant band-shift; also recorded: resulted in the phosphorylation of this site”.

Question: With `CCCCCCCCCCCCCC(=O)O[C@@H]1[C@@H](C)[C@@]2(O)[C@@H](C=C(CO)C[C@]3(O)C(=O)C(C)=C[C@@H]23)[C@@H]2C(C)(C)[C@]12OC(C)=O` [PMA] as the compound, how does the “effect on BAD phosphorylation” value (BAD phosphorylation) read?
Answer: The value was “promotes BAD phosphorylation”.

Question: Which “effect on BAD phosphorylation” value (BAD phosphorylation) does the source give for `CN[C@@H]1C[C@H]2O[C@@](C)([C@@H]1OC)n1c3ccccc3c3c4c(c5c6ccccc6n2c5c31)C(=O)NC4` [staurosporin] here?
Answer: The value was “inhibits BAD phosphorylation”.

Question: How did the “induction of band-shift (Ser155 phosphorylation) of HA-BAD S112A/S136A” value [1] turn out when “ACTH: adrenocorticotropic hormone, GPCR ligand (SYSMEHFRWGKPVGKKRRPVKVYPNGAEDESAEAFPLEF; Corticotropin; UniProt P01189 138-176, looked up)” was run?
Answer: Its value is “neither TK (FIG. 6(a), lane 3) nor ACTH (FIG. 6(b), lane 5) alone induces a similar band-shift”.

Question: With “BAD BH3-P: Synthetic BAD BH3 peptide, residues 143–168 of SEQ ID NO: 2, phosphorylated on Ser155 (AAQRYGRELRRM[pS]DEFEGSFKGLPRP; listed as Mus musculus)” as the compound, how does the “reduction of affinity for Bcl-XL” value (GST-Bcl-XL; BAD BH3 peptide phosphorylated on Ser155) read?
Answer: Its value is “greater than 100 fold”.

Question: With “BAD BH3: Synthetic BAD BH3 peptide, residues 143–168 of SEQ ID NO: 2, unphosphorylated on Ser155 (AAQRYGRELRRMSDEFEGSFKGLPRP; listed as Mus musculus)” as the compound, how does the “affinity of BAD BH3 peptide for Bcl-XL” value (GST-Bcl-XL; ability to block binding of GST-Bcl-XL to plate-bound BAK BH3 peptide, compared with BAK BH3 control peptide) read?
Answer: The value was “affinity similar to the BAK BH3 control peptide”.

Question: For “BAD S112A: mutant of shorter murine BAD, serine corresponding to Ser112 substituted with alanine; HA- or GST-tagged”, which “band-shift (phosphorylation) of expressed BAD construct in response to L-epinephrine” value ([1]; HeLa cells) is on record?
Answer: The value was “significant band-shift”.

Question: What does the source list for IGF-1: insulin-like growth factor 1?
Answer: induction of band-shift of HA-BAD S112A/S136A [2]: induced a band-shift; Ser155 phosphorylation following growth factor stimulation ([1]; HeLa cells): not detected

Question: How did the “induction of phosphorylation of endogenous BAD on Ser155” value ([2]; serum-starved Rat-1 fibroblasts, phospho-S155 antibody) turn out when PDGF was run?
Answer: The value was “induced the phosphorylation of endogenous BAD on Ser155”.

Question: And the “induction of band-shift of HA-BAD S112A/S136A” value [2]?
Answer: Its value is “induced a band-shift”.

Question: What about the “Ser155 phosphorylation following growth factor stimulation” value ([1]; HeLa cells) of the same compound?
Answer: Its value is “not detected”.
